In patent US6461997B1, “Triazole sulfones having herbicidal activity” (Monsanto Technology LLC, priority 1999, dated 2002):

Legend:
[1] = system: AGSST (creeping bentgrass); test: Pre-plant incorporated (PPI) herbicidal activity, cool season; format: in vivo, Agrostis stolonifera; conditions: for Percent inhibition AGSST: weed, PPI application
Procedure: (§1) In another set of tests, the pre-plant incorporated (PPI) activity of compounds of this invention was evaluated on the same species as for the pre-emergence tests described above. In the PPI tests the following procedure, designed to simulate PPI application, was used.
(§2) A pre-prepared topsoil mixture (described above) was placed in a pot and compacted to a depth of 1.0 to 1.25 cm from the top of the pot. Seeds of each of several monocotyledonous and dicotyledonous annual plant species were placed on top of the soil. A sufficient quantity of soil to cover the seeds and level fill the pot was weighed into an open container. A known amount of the test compound was dissolved or suspended in an organic solvent and applied by spraying to this cover soil. The cover soil was thoroughly mixed to distribute the test compound throughout the cover soil, and was then applied as a cover layer over the seeds. Untreated soil was used as a cover layer for control pots. After treatment the plants were placed in a greenhouse where they received 0.64 cm of overhead irrigation. All subsequent watering consisted of a light overhead mist and/or subirrigation as needed for germination and growth. Tables 9 and 10 below relate to warm season plant species which were placed after pre-emergence treatment in a greenhouse with a 30/21° C. day/night temperature regime. Tables 11 and 12 below relates to cool season plant species placed after pre-emergence treatment in a greenhouse or growth chamber with an 18/13° C. day/night temperature regime. Only the compounds of Examples 1, 6, 8, 11, 13 and 15-20 were included in PPI tests.
(§3) Approximately 14 days after planting and treating, the plants were observed and herbicidal efficacy recorded as percent inhibition by comparison with untreated plants.

SASKR (russian thistle) = test: as above; format: in vivo, Salsola kali; conditions: for Percent inhibition SASKR: weed, PPI application
Procedure: as §1, §2, §3

[2] = system: VERPE (creeping speedwell); test: as above; format: in vivo, Veronica persicaria; conditions: for Percent inhibition VERPE: weed, PPI application
Procedure: as §1, §2, §3

SINAR (wild mustard) = test: as above; format: in vivo, Sinapis arvensis; conditions: for Percent inhibition SINAR: weed, PPI application
Procedure: as §1, §2, §3

PANDI (fall panicum) = test: Pre-plant incorporated (PPI) herbicidal activity, warm season; format: in vivo, Panicum dichotomiflorum; conditions: for Percent inhibition PANDI: PPI application
Procedure: as §1, §2, §3

[3] = system: BRAPP (broadleaf signalgrass); test: Pre-emergence herbicidal activity, warm season; format: in vivo, Brachiaria platyphylla; conditions: GR80 = lowest tested rate (300, 100, 30, 10 g/ha) with 80% or greater inhibition; approx. 14 days after treating; 30/21° C.
How it was run: (§4)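 Seeds sown in sterilised fertilised topsoil received surface-applied compound in 50:50 acetone/water, typically at 300, 100, 30 and 10 g/ha, then greenhouse-grown at 30/21° C (warm-season species) or 18/13° C (cool-season species). Percent inhibition versus untreated plants was scored at about 14 days, giving GR80; an asterisk marks activity short of 80% at the top rate.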

[4] = system: GALAP (catchweed bedstraw); test: Pre-emergence herbicidal activity, cool season; format: in vivo, Galium aparine; conditions: lowest tested rate with 80% or greater inhibition; rates 300, 100, 30, 10 g/ha; about 14 days
How it was run: as §4

oilseed rape (BRSNS) = test: Selectivity test, PPI, cool season crop; format: in vivo, Brassica napus; conditions: PPI application
Procedure: as §2, §3
(§5) Additional pre-emergence and PPI tests were conducted by the procedures described above, on warm and cool season weed species in the presence of crop species, to assess herbicidal selectivity. Crop species included in warm season tests were corn (Zea mays, ZEAMX), rice (Oryza sativa, ORYSA) and soybean (Glycine max, GLYMX). Crop species included in cool season tests were wheat (Triticum aestivum, TRZAW), barley (Hordeunm vulgare, HORVX) and oilseed rape (Brassica napus, BRSNS).
(§6) Tables 15 and 16 relate to pre-emergence and PPI tests respectively on warm season species. Table 17 relates to pre-emergence tests on cool season species.

rice (ORYSA) = test: Selectivity test, PPI, warm season crop; format: in vivo, Oryza sativa; conditions: PPI application
Procedure: as §2, §3, §5, §6

SETFA (giant foxtail) = test: Pre-emergence herbicidal activity, warm season; format: in vivo, Setaria faberi; conditions: GR80 = lowest tested rate (300, 100, 30, 10 g/ha) with 80% or greater inhibition; approx. 14 days after treating; 30/21° C.
How it was run: as §4

POROL (common purslane) = test: Pre-emergence herbicidal activity, warm season; format: in vivo, Portulaca oleracea; conditions: GR80 = lowest tested rate (300, 100, 30, 10 g/ha) with 80% or greater inhibition; approx. 14 days after treating; 30/21° C.
How it was run: as §4

[5] = pre-plant incorporated, lowest tested rate with 80% or greater inhibition, about 14 days

CCN(CC)C(=O)n1cnc(S(=O)(=O)C(F)(F)SCc2ccccc2)n1 [Example 10]
Percent inhibition AGSST ([1]; 10 g/ha): 90% | Percent inhibition AGSST ([1]; 30 g/ha): 70% | Percent inhibition AGSST ([1]; 100 g/ha): 100% | Percent inhibition AGSST ([1]; 300 g/ha): 100% | Percent inhibition AGSST ([1]; 900 g/ha): 100% | Percent inhibition SASKR (SASKR (russian thistle); 10 g/ha): 10% | Percent inhibition SASKR (SASKR (russian thistle); 30 g/ha): 20% | Percent inhibition SASKR (SASKR (russian thistle); 100 g/ha): 90% | Percent inhibition SASKR (SASKR (russian thistle); 300 g/ha): 100% | Percent inhibition SASKR (SASKR (russian thistle); 900 g/ha): 100% | Percent inhibition VERPE ([2]; 10 g/ha): 70% | Percent inhibition VERPE ([2]; 100 g/ha): 100% | Percent inhibition VERPE ([2]; 300 g/ha): 100% | Percent inhibition VERPE ([2]; 900 g/ha): 100% | Percent inhibition SINAR (SINAR (wild mustard); 10 g/ha): 0% | Percent inhibition SINAR (SINAR (wild mustard); 30 g/ha): 90% | Percent inhibition SINAR (SINAR (wild mustard); 100 g/ha): 100% | Percent inhibition SINAR (SINAR (wild mustard); 300 g/ha): 80% | Percent inhibition SINAR (SINAR (wild mustard); 900 g/ha): 100% | Percent inhibition PANDI (PANDI (fall panicum); 10 g/ha): 0% | Percent inhibition PANDI (PANDI (fall panicum); 30 g/ha): 50% | Percent inhibition PANDI (PANDI (fall panicum); 100 g/ha): 100% | Percent inhibition PANDI (PANDI (fall panicum); 300 g/ha): 100% | Percent inhibition PANDI (PANDI (fall panicum); 900 g/ha): 100% | Pre-emergence activity (GR80) BRAPP [3]: 300 g/ha | Pre-emergence activity GR80, GALAP [4]: [empty] | Percent inhibition BRSNS (oilseed rape (BRSNS); 10 g/ha): 0% | Percent inhibition BRSNS (oilseed rape (BRSNS); 30 g/ha): 0% | Percent inhibition BRSNS (oilseed rape (BRSNS); 100 g/ha): 0% | Percent inhibition BRSNS (oilseed rape (BRSNS); 300 g/ha): 50% | Percent inhibition BRSNS (oilseed rape (BRSNS); 900 g/ha): 95% | Percent inhibition ORYSA (rice (ORYSA); 10 g/ha): 0% | Percent inhibition ORYSA (rice (ORYSA); 30 g/ha): 0% | Percent inhibition ORYSA (rice (ORYSA); 100 g/ha): 0% | Percent inhibition ORYSA (rice (ORYSA); 300 g/ha): 30% | Percent inhibition ORYSA (rice (ORYSA); 900 g/ha): 0% | Pre-emergence activity (GR80) SETFA (SETFA (giant foxtail)): 100 g/ha

CCN(CC)C(=O)n1cnc(S(=O)(=O)C(F)(F)SCCOC)n1 [Example 13]
PPI activity GR80, AGSST [1, 5]: 30 g/ha | Percent inhibition AGSST ([1]; 10 g/ha): 60% | Percent inhibition AGSST ([1]; 30 g/ha): 95% | Percent inhibition AGSST ([1]; 100 g/ha): 100% | Percent inhibition AGSST ([1]; 300 g/ha): 100% | Percent inhibition AGSST ([1]; 900 g/ha): 100% | PPI activity GR80, SASKR (SASKR (russian thistle); [5]): 300 g/ha | Percent inhibition SASKR (SASKR (russian thistle); 10 g/ha): 20% | Percent inhibition SASKR (SASKR (russian thistle); 30 g/ha): 30% | Percent inhibition SASKR (SASKR (russian thistle); 100 g/ha): 80% | Percent inhibition SASKR (SASKR (russian thistle); 300 g/ha): 100% | Percent inhibition SASKR (SASKR (russian thistle); 900 g/ha): 100% | PPI activity GR80, VERPE [2, 5]: 100 g/ha | Percent inhibition VERPE ([2]; 10 g/ha): 75% | Percent inhibition VERPE ([2]; 30 g/ha): 100% | Percent inhibition VERPE ([2]; 100 g/ha): 100% | Percent inhibition VERPE ([2]; 300 g/ha): 100% | Percent inhibition VERPE ([2]; 900 g/ha): 100% | PPI activity GR80, SINAR (SINAR (wild mustard); [5]): [empty] | Percent inhibition SINAR (SINAR (wild mustard); 10 g/ha): 70% | Percent inhibition SINAR (SINAR (wild mustard); 30 g/ha): 100% | Percent inhibition SINAR (SINAR (wild mustard); 100 g/ha): 100% | Percent inhibition SINAR (SINAR (wild mustard); 900 g/ha): 100% | Percent inhibition PANDI (PANDI (fall panicum); 10 g/ha): 40% | Percent inhibition PANDI (PANDI (fall panicum); 30 g/ha): 100% | Percent inhibition PANDI (PANDI (fall panicum); 100 g/ha): 90% | Percent inhibition PANDI (PANDI (fall panicum); 300 g/ha): 100% | Percent inhibition PANDI (PANDI (fall panicum); 900 g/ha): 100% | PPI activity GR80, PANDI (PANDI (fall panicum); [5]): 30 g/ha | Pre-emergence activity (GR80) BRAPP [3]: 300 g/ha | Pre-emergence activity GR80, GALAP [4]: 100 g/ha | Percent inhibition BRSNS (oilseed rape (BRSNS); 10 g/ha): 0% | Percent inhibition BRSNS (oilseed rape (BRSNS); 30 g/ha): 0% | Percent inhibition BRSNS (oilseed rape (BRSNS); 100 g/ha): 0% | Percent inhibition BRSNS (oilseed rape (BRSNS); 300 g/ha): 70% | Percent inhibition BRSNS (oilseed rape (BRSNS); 900 g/ha): 30% | Percent inhibition ORYSA (rice (ORYSA); 10 g/ha): 0% | Percent inhibition ORYSA (rice (ORYSA); 30 g/ha): 30% | Percent inhibition ORYSA (rice (ORYSA); 100 g/ha): 70% | Percent inhibition ORYSA (rice (ORYSA); 300 g/ha): 60% | Percent inhibition ORYSA (rice (ORYSA); 900 g/ha): 80% | Pre-emergence activity (GR80) SETFA (SETFA (giant foxtail)): * (activity observed, at least at highest rate, but <80% inhibition)

CCN(CC)C(=O)n1cnc(S(=O)(=O)C(F)(F)C(F)(F)SC)n1 [Example 14]
Pre-emergence activity (GR80) BRAPP [3]: 300 g/ha | Pre-emergence activity (GR80) POROL (POROL (common purslane)): 300 g/ha | Pre-emergence activity GR80, GALAP [4]: 30 g/ha | Pre-emergence activity (GR80) SETFA (SETFA (giant foxtail)): 100 g/ha
